{"source": "patent US20230080054A1", "about": "(ILDONG PHARMACEUTICAL CO., LTD., priority 2021, published 2023)", "key": {"[1]": {"system": "platelet-rich plasma (PRP)", "experiment": "Recalcification time of rat platelet-rich plasma", "conditions": "30 μM, vs 2% DMSO control", "experimental": "Example 5: Recalcification Time\n(§1) 1. Materials and Instruments\nIsoflurane (Hana Pharm, cat. #9008), Isotonic Sodium Chloride Injection (Daihan Pharm, cat. #331), Citrate-dextrose solution (Sigma-Aldrich, cat. #C3821), Calcium chloride solution (Sigma-Aldrich, cat. #21115), 22G Syringe 10 mL (Koreavaccine), Dimethyl sulfoxide (Sigma-Aldrich, cat. #D5879), Apixaban (AK scientific, cat. #X1060), 96 Well Cell Culture Plates (SPL Life Sciences, cat. #30096), Synergy H4 Hybrid Microplate Reader (BioTek), Combi R515 Multi-purpose Centrifuge (Hanil Scientific), BS-06 Shaking & Heating Baths (JEIO TECH), and PST-60HL-4 Plate Shaker-Thermostat (Bio-San)\nSeven-week-old male SD Rat (ORIENT BIO.) were maintained under controlled conditions of temperature (22±2° C.) and 12-h light/12-h dark cycle. Rats were housed in the pathogen-free facility of the Laboratory Animal Research Center in Ildong Pharmaceutical Co. Ltd. All procedures on animals were conducted in accordance with the relevant national regulatory guidelines and individual experiments approved by the Ildong Pharmaceutical Co. Ltd., Institutional Animal Care and Use Committee (IACUC) (approval No.: A2106-3, 2108-4).\nThe ability of test compounds to interfere with plasma coagulation, in the presence of platelets, was analyzing by measuring the recalcification time of rat plasma. The blood of animals was collected into 15 mL tubes containing Citrate-dextrose solution (9:1 v/v) before performing the assays. For recalcification time, platelet-rich plasma (PRP) samples were obtained by centrifugation at 360×g for 10 minutes. And the PRP were preincubated for 5 minutes (37° C.). In a 96 well microplate, test compounds (2 μL) were treated in 98 μL of platelet rich plasma. After mixing with a pipette, it was incubated at 37° C. for 15 minutes. The reaction was started by addition of 200 μL of pre-warmed CaCl2) (16 mM). Immediately, put the microplate in a microplate reader and the signals were measured by the following steps.\n(1) 405 nm wavelength absorbance signals were recorded in every 10 seconds at 37° C.\n(2) Basal absorbance signals were recorded for 0 second.\nThe signal variance of each of the test compounds was obtained by the following step.\n(1) Background signals (t=O) were subtracted from recording values, and the resulting values were converted to change values. The values at 0 second were set to be zero.\nThe retardation time of test compound were calculated by the following formula:\nRetardation time (sec)=[log EC50 (test sample)−log EC50 (DMSO control)]\nAs described above, a DMSO control group is a group to which 2% DMSO was treated.\nThe assay result is shown in Table 5, where compounds (30 μM) having less than 20 seconds of retardation time are marked by ‘C’; the compounds (30 μM) having retardation time of 20 seconds or more to less than 50 seconds are marked by ‘B’; and the compounds (30 μM) having retardation time of 50 seconds or more are marked by ‘A’."}, "citrated human blood": {"system": "citrated human blood", "experiment": "NATEM (ROTEM thromboelastometry, blood clot formation)", "conditions": "100 μM, 2% v/v DMSO, 15 min preincubation", "experimental": "as §1\nStar-TEM reagent (TEM International GmbH, cat. #000503-01), Dimethyl sulfoxide (Sigma-Aldrich, cat. #D2438), Cleancle normal saline (JW Pharm), and ROTEM® delta system (TEM International GmbH).\nHuman blood research was experimented after approval from the Yonsei University Institutional Review Board (IRB) in accordance with the Life Ethics and Safety Act.\nBlood samples for NATEM were kept at room temperature, and all NATEM analyses were performed at 37° C. NATEM was carried out using 300 μL of citrated human blood preincubating with test compounds (100 μM, 2% v/v DMSO) for 15 minutes in cuvette and […] with Star-TEM reagent according to the manufacturer's manual (ROTEM; Tem International GmbH, Munich, Germany). After addition of the star-TEM reagent, cuvettes were measured by ROTEM® delta system. Blood clot formation was evaluated.\nThe obtained parameters were time to clot initiation (Clotting Time, CT), time to clot formation, α angle for clot growth kinetics (initial rate of fibrin polymerization), amplitude (firmness) at 10 minutes, maximum clot firmness, and maximum lysis."}, "human ANO6": {"target": "T1, human ANO6 (Homo sapiens, UniProt Q4KMQ2)", "T1 construct": "expressed in transfected cells", "T1 sequence (Q4KMQ2 1-931 isoform Q4KMQ2-2)": "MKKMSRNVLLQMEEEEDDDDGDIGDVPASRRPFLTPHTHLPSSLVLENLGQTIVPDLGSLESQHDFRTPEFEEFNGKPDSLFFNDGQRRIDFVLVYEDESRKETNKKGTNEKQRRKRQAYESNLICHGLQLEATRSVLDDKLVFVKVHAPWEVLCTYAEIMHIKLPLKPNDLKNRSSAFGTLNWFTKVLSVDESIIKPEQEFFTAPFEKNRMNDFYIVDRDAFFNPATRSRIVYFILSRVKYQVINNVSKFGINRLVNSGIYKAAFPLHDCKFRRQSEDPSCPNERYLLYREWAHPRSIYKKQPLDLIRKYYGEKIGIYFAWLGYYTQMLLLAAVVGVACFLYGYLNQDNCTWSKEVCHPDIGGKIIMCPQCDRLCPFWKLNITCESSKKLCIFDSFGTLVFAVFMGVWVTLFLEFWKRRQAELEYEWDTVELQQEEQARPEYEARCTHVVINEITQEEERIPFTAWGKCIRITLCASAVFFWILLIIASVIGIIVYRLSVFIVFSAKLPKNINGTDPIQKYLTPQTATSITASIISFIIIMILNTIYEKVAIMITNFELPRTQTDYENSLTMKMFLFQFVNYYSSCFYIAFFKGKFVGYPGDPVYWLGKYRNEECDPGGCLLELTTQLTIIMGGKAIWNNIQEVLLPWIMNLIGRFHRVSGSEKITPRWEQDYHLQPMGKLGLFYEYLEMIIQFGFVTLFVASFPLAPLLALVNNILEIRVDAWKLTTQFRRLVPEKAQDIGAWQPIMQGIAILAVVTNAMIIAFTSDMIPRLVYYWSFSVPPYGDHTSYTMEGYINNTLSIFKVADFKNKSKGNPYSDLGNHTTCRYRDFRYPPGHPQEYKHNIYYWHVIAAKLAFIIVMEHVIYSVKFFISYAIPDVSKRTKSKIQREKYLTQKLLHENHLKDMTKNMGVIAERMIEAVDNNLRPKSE", "experiment": "LACT C2 assay (phosphatidylserine scramblase function assay)", "assay_type": "cell-based", "conditions": "FRT cells expressing human ANO6, 10 μM ionomycin; for inhibition at 0.1 µM: test compound 100 nM, read-out: Inhibition Level 100 nM", "method_in_brief": "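FRT cells stably expressing human ANO6 were pretreated with compound (1% DMSO) for 10 min, then stimulated with 10 μM ionomycin for 10 min. Surface phosphatidylserine was stained with 500 nM Lact-C2-GFP and quantified by imaging. Inhibition was scaled between unstimulated (100%) and ionomycin-only (0%) controls, averaged over triplicates.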"}}}
{"smiles": "O=C(N[C@@H]1C[C@H]1c1ccccc1)c1cccc(Nc2ccc(-c3ccccn3)cc2)c1", "note": "[Compound 155, N-((1R,2S)-2-phenylcyclopropyl)-3-((4-(pyridin-2-yl)phenyl)amino)benzamide]", "values": [{"measurement": "Inhibition Level (retardation time, recalcification time)", "setting": "[1]", "value": "A (the compounds (30 μM) having retardation time of 50 seconds or more)"}, {"measurement": "A10, amplitude (firmness) at 10 minutes", "setting": "citrated human blood", "value": 45, "unit": "mm"}, {"measurement": "CFT, clot formation time", "setting": "citrated human blood", "value": 168, "unit": "s"}, {"measurement": "CT, clotting time", "setting": "citrated human blood", "value": 616, "unit": "s"}, {"measurement": "MCF, maximum clot firmness", "setting": "citrated human blood", "value": 57, "unit": "mm"}, {"measurement": "ML, maximum lysis", "setting": "citrated human blood", "value": 2, "unit": "%"}, {"measurement": "α, α-angle", "setting": "citrated human blood", "value": 59, "unit": "°"}, {"measurement": "inhibition at 0.1 µM", "setting": "human ANO6", "value": "≥ 60", "unit": "%"}, {"measurement": "inhibition at 1 µM", "setting": "human ANO6; test compound 1 μM, read-out: Inhibition Level 1 μM", "value": "≥ 60", "unit": "%"}]}
{"smiles": "O=C(N[C@@H]1C[C@H]1c1ccccc1)c1cccc(Nc2ccc(-c3cncnc3)cc2)c1", "note": "[Compound 165, N-((1R,2S)-2-phenylcyclopropyl)-3-((4-(pyrimidin-5-yl)phenyl)amino)benzamide]", "values": [{"measurement": "Inhibition Level (retardation time, recalcification time)", "setting": "[1]", "value": "C (compounds (30 μM) having less than 20 seconds of retardation time)"}, {"measurement": "inhibition at 0.1 µM", "setting": "human ANO6", "value": "< 30", "unit": "%"}]}
{"smiles": "O=C(Nc1cccc(F)c1)c1cccc(Nc2ccc(-c3ncccn3)cc2)c1", "note": "[Compound 170, N-(3-fluorophenyl)-3-((4-(pyrimidin-2-yl)phenyl)amino)benzamide]", "values": [{"measurement": "Inhibition Level (retardation time, recalcification time)", "setting": "[1]", "value": "B (the compounds (30 μM) having retardation time of 20 seconds or more to less than 50 seconds)"}, {"measurement": "inhibition at 0.1 µM", "setting": "human ANO6", "value": "30 to 60", "unit": "%"}]}
{"smiles": "O=C(N[C@@H]1C[C@H]1c1ccccc1)c1cccc(Nc2ccc(-c3ncccn3)cc2)c1", "note": "[Compound 171, N-((1R,2S)-2-phenylcyclopropyl)-3-((4-(pyrimidin-2-yl)phenyl)amino)benzamide]", "values": [{"measurement": "Inhibition Level (retardation time, recalcification time)", "setting": "[1]", "value": "C (compounds (30 μM) having less than 20 seconds of retardation time)"}, {"measurement": "inhibition at 0.1 µM", "setting": "human ANO6", "value": "< 30", "unit": "%"}]}
{"smiles": "O=C(Nc1cccc(F)c1)c1cccc(Nc2ccc(-c3cnccn3)cc2)c1", "note": "[Compound 172, N-(3-fluorophenyl)-3-((4-(pyrazin-2-yl)phenyl)amino)benzamide]", "values": [{"measurement": "Inhibition Level (retardation time, recalcification time)", "setting": "[1]", "value": "C (compounds (30 μM) having less than 20 seconds of retardation time)"}, {"measurement": "inhibition at 0.1 µM", "setting": "human ANO6", "value": "≥ 60", "unit": "%"}]}
{"smiles": "O=C(N[C@@H]1C[C@H]1c1ccccc1)c1cccc(Nc2ccc(-c3cnccn3)cc2)c1", "note": "[Compound 173, N-((1R,2S)-2-phenylcyclopropyl)-3-((4-(pyrazin-2-yl)phenyl)amino)benzamide]", "values": [{"measurement": "Inhibition Level (retardation time, recalcification time)", "setting": "[1]", "value": "B (the compounds (30 μM) having retardation time of 20 seconds or more to less than 50 seconds)"}, {"measurement": "inhibition at 0.1 µM", "setting": "human ANO6", "value": "< 30", "unit": "%"}]}
{"smiles": "O=C(N[C@@H]1C[C@H]1c1ccccc1)c1cccc(Nc2ccc(-c3ccncn3)cc2)c1", "note": "[Compound 174, N-((1R,2S)-2-phenylcyclopropyl)-3-((4-(pyrimidin-4-yl)phenyl)amino)benzamide]", "values": [{"measurement": "Inhibition Level (retardation time, recalcification time)", "setting": "[1]", "value": "B (the compounds (30 μM) having retardation time of 20 seconds or more to less than 50 seconds)"}, {"measurement": "A10, amplitude (firmness) at 10 minutes", "setting": "citrated human blood", "value": 45, "unit": "mm"}, {"measurement": "CFT, clot formation time", "setting": "citrated human blood", "value": 180, "unit": "s"}, {"measurement": "CT, clotting time", "setting": "citrated human blood", "value": 665, "unit": "s"}, {"measurement": "MCF, maximum clot firmness", "setting": "citrated human blood", "value": 56, "unit": "mm"}, {"measurement": "ML, maximum lysis", "setting": "citrated human blood", "value": 2, "unit": "%"}, {"measurement": "α, α-angle", "setting": "citrated human blood", "value": 57, "unit": "°"}, {"measurement": "inhibition at 0.1 µM", "setting": "human ANO6", "value": "≥ 60", "unit": "%"}]}
{"smiles": "O=C(Nc1cccc(F)c1)c1cccc(Nc2ccc(-c3ccncn3)cc2)c1", "note": "[Compound 175, N-(3-fluorophenyl)-3-((4-(pyrimidin-4-yl)phenyl)amino)benzamide]", "values": [{"measurement": "Inhibition Level (retardation time, recalcification time)", "setting": "[1]", "value": "B (the compounds (30 μM) having retardation time of 20 seconds or more to less than 50 seconds)"}, {"measurement": "inhibition at 0.1 µM", "setting": "human ANO6", "value": "≥ 60", "unit": "%"}]}
